Patent US20150011508A1, “COMPOUNDS AND COMPOSITIONS AS C-KIT KINASE INHIBITORS” (priority 2011, published 2015)

Molecular target: T1, c-kit (Homo sapiens, UniProt P10721)
T1 construct: human Mo7e cells which endogenously express c-kit; endogenous in cells; host or cells: human Mo7e cells (SCF-dependent promegakaryocytic leukemia line)
Assay: Mo7e cell proliferation assay (SCF dependent proliferation)
Assay type: cell-based
Details: Table 1; human Mo7e cells stimulated with human recombinant SCF, 48 h, CellTiter Glo; 1% FBS (footnote)
Method: Compounds of Formula (I) and Formula (II) provided herein were assayed to measure their capacity to inhibit c-kit and PDGFR kinases using the appropriate assay described below: c-Kit inhibition was evaluated using the Mo7e cell proliferation assay, and PDGFR inhibition was evaluated using the Rat A10 cell proliferation assay and the Human TGHA-VSMC cell proliferation assay.
The compounds of Table 1 and Table 2 were tested for inhibition of SCF dependent proliferation using human Mo7e cells which endogenously express c-kit in a 384 well format. […] After 48 hours of incubation at 37° C., cell viability was measured by adding 25 uL of CellTiter Glo (Promega) to the cells and the luminescence was measured by a CLIPR CCD camera (Molecular Devices).
The IC50 value is given as that concentration of the test compound in question that provoke a response halfway between the baseline and maximum responses.

T1 sequence (P10721 26-976): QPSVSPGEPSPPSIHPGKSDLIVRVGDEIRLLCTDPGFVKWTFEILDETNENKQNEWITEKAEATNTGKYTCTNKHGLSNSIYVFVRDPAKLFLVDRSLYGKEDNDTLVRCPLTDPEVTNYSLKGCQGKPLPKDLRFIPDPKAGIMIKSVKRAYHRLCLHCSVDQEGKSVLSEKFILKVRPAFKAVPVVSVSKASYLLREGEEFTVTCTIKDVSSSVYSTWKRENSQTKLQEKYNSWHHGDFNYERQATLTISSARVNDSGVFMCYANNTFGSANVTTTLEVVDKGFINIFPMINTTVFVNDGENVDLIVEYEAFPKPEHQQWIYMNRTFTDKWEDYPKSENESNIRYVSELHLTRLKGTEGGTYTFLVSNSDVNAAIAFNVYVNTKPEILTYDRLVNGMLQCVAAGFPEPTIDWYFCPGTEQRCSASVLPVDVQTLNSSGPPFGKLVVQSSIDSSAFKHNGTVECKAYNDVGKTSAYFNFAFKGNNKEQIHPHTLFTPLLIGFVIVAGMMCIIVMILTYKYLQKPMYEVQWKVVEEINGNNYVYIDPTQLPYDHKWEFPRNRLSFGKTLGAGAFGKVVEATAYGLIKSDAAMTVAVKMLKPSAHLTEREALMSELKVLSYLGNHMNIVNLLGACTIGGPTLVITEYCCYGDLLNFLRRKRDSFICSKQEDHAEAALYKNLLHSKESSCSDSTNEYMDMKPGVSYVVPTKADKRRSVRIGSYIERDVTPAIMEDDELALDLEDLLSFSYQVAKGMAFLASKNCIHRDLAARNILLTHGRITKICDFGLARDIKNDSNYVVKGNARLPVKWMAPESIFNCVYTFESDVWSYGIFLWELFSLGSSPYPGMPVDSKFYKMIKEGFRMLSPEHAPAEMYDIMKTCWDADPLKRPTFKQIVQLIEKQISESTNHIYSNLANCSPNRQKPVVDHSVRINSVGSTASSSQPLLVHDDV

Row | Compound | IC50 [nM]
1 | COCCCc1nc(-c2ccc(C)c(NC(=O)c3cnc4ccccn34)c2)no1 [F3] | 44
2 | COc1ccncc1-c1ccc2ncc(C(=O)Nc3cc(-c4noc(C)n4)ccc3C)n2c1 [F102] | 87
3 | Cc1ccc(-c2noc(CNC(=O)CC(F)(F)F)n2)cc1NC(=O)c1cnc2ccccn12 [F35] | 43
4 | Cc1ccc(-c2noc(CCNC(=O)OC(C)(C)C)n2)cc1NC(=O)c1cnc2ccccn12 [F2] | 63
5 | Cc1ccn2c(C(=O)Nc3cc(-c4noc(COCC(F)(F)F)n4)ccc3C)cnc2c1 [F77] | 10
6 | Cc1ccn2c(C(=O)Nc3cc(-c4noc(NCCF)n4)ccc3C)cnc2c1 [F68] | 54
7 | Cc1ccc(-c2noc(CC(=O)OC(C)(C)C)n2)cc1NC(=O)c1cnc2ccccn12 [F27, tert-butyl 2-(3-(3-(imidazo[1,2-a]pyridine-3-carboxamido)-4-methylphenyl)-1,2,4-oxadiazol-5-yl)acetate] | 22
8 | Cc1ccc(Nc2noc(C(C)(C)CO)n2)cc1NC(=O)c1cnc2ccccn12 [F46, N-(5-(5-(1-hydroxy-2-methylpropan-2-yl)-1,2,4-oxadiazol-3-ylamino)-2-methylphenyl)imidazo[1,2-a]pyridine-3-carboxamide] | 13
9 | Cc1ccc(-c2noc(CCC(C)(C)O)n2)cc1NC(=O)c1cnc2ccc(F)cn12 [F36, 6-fluoro-N-(5-(5-(3-hydroxy-3-methylbutyl)-1,2,4-oxadiazol-3-yl)-2-methylphenyl)imidazo[1,2-a]pyridine-3-carboxamide] | 87
10 | Cc1nc(-c2ccc(C)c(NC(=O)c3cnc4ccc(-c5cccnc5F)cn34)c2)no1 [F92] | 16
11 | Cc1ccc(-c2noc([C@@H](C)NS(C)(=O)=O)n2)cc1NC(=O)c1cnc2ccccn12 [F18] | 98
12 | CCN(Cc1nc(-c2ccc(C)c(NC(=O)c3cnc4ccccn34)c2)no1)C(=O)OC [F23] | 59
13 | Cc1ccn2c(C(=O)Nc3cc(-c4noc(C[C@@H](O)C(F)(F)F)n4)ccc3C)cnc2c1 [F99] | 45
14 | Cc1ccc(-c2noc(CCC(C)(C)O)n2)cc1NC(=O)c1cnc2cc(C3CC3)ccn12 [F64] | 48
15 | Cc1ccc(-c2noc(C[C@@H](O)C(F)(F)F)n2)cc1NC(=O)c1cnc2ccccn12 [F31] | 58
16 | (S)-1,1,1-trifluoro-2-methyl-4-(3-(4-methyl-3-(7-methylimidazo[1,2-a]pyridine-3-carboxamido)phenyl)-1,2,4-oxadiazol-5-yl)butan-2-yl dihydrouen phosphate [F268] | 26
17 | Cc1ccc(-c2noc(CCC(F)(F)F)n2)cc1NC(=O)c1cnc2ccccn12 [F74] | 36
18 | Cc1ccc(-c2noc(C(CO)(CO)NS(C)(=O)=O)n2)cc1NC(=O)c1cnc2ccccn12 [F17, N-(5-(5-(1,3-dihydroxy-2-(methylsulfonamido)propan-2-yl)-1,2,4-oxadiazol-3-yl)-2-methylphenyl)imidazo[1,2-a]pyridine-3-carboxamide] | 67
19 | Cc1ccc(-c2noc(CC[C@](C)(O)C(F)(F)F)n2)cc1NC(=O)c1cnc2ccc(F)cn12 [F85] | 38
20 | Cc1ccn2c(C(=O)Nc3cc(-c4noc(NCC(C)C)n4)ccc3C)cnc2c1 [F69] | 16
21 | Cc1ccc(-c2noc(CNC(=O)OC(C)C)n2)cc1NC(=O)c1cnc2ccccn12 [F30] | 61
22 | [2H]c1c([2H])c([2H])n2c(C(=O)Nc3cc(-c4noc(CC=C(C)C)n4)ccc3C)cnc2c1[2H] [F52] | 16
23 | Cc1ccc(-c2noc(COCCOC(C)(C)C)n2)cc1NC(=O)c1cnc2ccccn12 [F34] | 93
24 | [2H]c1c([2H])c([2H])n2c(C(=O)Nc3cc(-c4noc(COCCOC)n4)ccc3C)cnc2c1[2H] [F53, N-(5-(5-((2-methoxyethoxy)methyl)-1,2,4-oxadiazol-3-yl)-2-methylphenyl)5,6,7,8,deutero-imidazo[1,2-a]pyridine-3-carboxamide] | 61
25 | Cc1ccc(-c2noc(COC(CF)CF)n2)cc1NC(=O)c1cnc2ccccn12 [F95] | 28
26 | Cc1ccc(-c2noc(CCC(=O)OC(C)C)n2)cc1NC(=O)c1cnc2ccccn12 [F55a, isopropyl 3-(3-(3-(imidazo[1,2-a]pyridine-3-carboxamido)-4-methylphenyl)-1,2,4-oxadiazol-5-yl)propanoate] | 92
27 | Cc1nc(-c2ccc(C)c(NC(=O)c3cnc4ccc(-c5cnn(CC(C)(C)O)c5)cn34)c2)no1 [F45] | 24

Other lines, results leading:

Row | IC50 [nM] | Compound
28 | 16 | Cc1nc(-c2ccc(C)c(NC(=O)c3cnc4ccc(-c5c(C)nn(CCO)c5C)cn34)c2)no1 [F255, 6-(1-(2-hydroxyethyl)-3,5-dimethyl-1H-pyrazol-4-yl)-N-(2-methyl-5-(5-methyl-1,2,4-oxadiazol-3-yl)phenyl)imidazo[1,2-a]pyridine-3-carboxamide]
29 | 51 | Cc1ccn2c(C(=O)Nc3cc(-c4noc(CC(O)(C(F)(F)F)C(F)(F)F)n4)ccc3C)cnc2c1 [F254]
30 | 65 | CNC(=O)c1sc(-c2ccc3ncc(C(=O)Nc4cc(-c5noc(C)n5)ccc4C)n3c2)nc1C [F258, N,4-dimethyl-2-(3-((2-methyl-5-(5-methyl-1,2,4-oxadiazol-3-yl)phenyl)carbamoyl)imidazo[1,2-a]pyridin-6-yl)thiazole-5-carboxamide]

Same assay, conditions: Table 2; human Mo7e cells stimulated with human recombinant SCF, 48 h, CellTiter Glo; 1% FBS (footnote)

Row | Compound | IC50 [nM]
31 | Cc1ccc(-c2noc(C(C)(C)NC(=O)OC(C)(C)C)n2)cc1NC(=O)c1cnc2ccccn12 [F143] | 201
32 | COC(=O)NCc1nc(-c2ccc(C)c(NC(=O)c3cnc4cc(F)ccn34)c2)no1 [F159] | 184
33 | Cc1ccc(-c2noc(CCCNS(C)(=O)=O)n2)cc1NC(=O)c1cnc2ccccn12 [F115] | 772
34 | CCOC(=O)NCCc1nc(-c2ccc(C)c(NC(=O)c3cnc4ccccn34)c2)no1 [F120] | 248
35 | Cc1cc(F)c(-c2noc(CNC(=O)OC(C)(C)C)n2)cc1NC(=O)c1cnc2ccccn12 [F156] | 198
36 | Cc1ccc(-c2noc(CC(C)(C)O)n2)cc1NC(=O)c1cnc2ccccn12 [F138] | 233
37 | CC(=O)NCCc1nc(-c2ccc(C)c(NC(=O)c3cnc4ccccn34)c2)no1 [F113] | 689
38 | COC(=O)NCc1nc(-c2ccc(C)c(NC(=O)c3cnc4cc(C#N)ccn34)c2)no1 [F158] | 779
39 | COC(=O)N[C@@H](C)c1nc(-c2ccc(C)c(NC(=O)c3cnc4ccccn34)c2)no1 [F135] | 166
40 | COCCOC(=O)NCCc1nc(-c2ccc(C)c(NC(=O)c3cnc4ccccn34)c2)no1 [F123] | 305
41 | Cc1ccc(-c2noc(C(C)(C)NS(C)(=O)=O)n2)cc1NC(=O)c1cnc2ccccn12 [F147] | 457
42 | O=C(Nc1cc(-c2noc(CC(O)(C(F)(F)F)C(F)(F)F)n2)ccc1F)c1cnc2ccccn12 [F153] | 246
43 | CCNCc1nc(-c2ccc(C)c(NC(=O)c3cnc4ccccn34)c2)no1 [F145] | 219
44 | Cc1ccc(-c2noc(CNC(=O)C(C)(C)O)n2)cc1NC(=O)c1cnc2ccccn12 [F134] | 173
45 | Cc1ccc(-c2noc(CNC(=O)N(C)C)n2)cc1NC(=O)c1cnc2ccccn12 [F164] | 965

Results, then the compound that gave them:

Row | IC50 [nM] | Compound
46 | 144 | Cc1nc(-c2ccc(C)c(NC(=O)c3cnc4ccc(C5CC5)cn34)c2)no1 [F203]
47 | 508 | Cc1nc(-c2ccc(C)c(NC(=O)c3cnc4ccc(C#N)cn34)c2)no1 [F185]
48 | > 10000 | Cc1ccc(-c2noc(CC(F)(F)F)n2)cc1NC(=O)c1cnc2ccccn12 [F231]
49 | 1480 | Cc1ccc(-c2noc(CNC(=O)CCO)n2)cc1NC(=O)c1cnc2ccccn12 [F224]
50 | 2380 | Cc1ccc(-c2noc(CC#N)n2)cc1NC(=O)c1cnc2ccccn12 [F227]
51 | 142 | Cc1ccn2c(C(=O)Nc3cc(-c4noc(CC[C@@](C)(OC(=O)[C@@H](N)C(C)C)C(F)(F)F)n4)ccc3C)cnc2c1 [F251]
52 | 134 | Cc1ccn2c(C(=O)Nc3cc(-c4noc(CC[C@](C)(OC(=O)[C@H](N)C(C)C)C(F)(F)F)n4)ccc3C)cnc2c1 [F252]
53 | 127 | Cc1nc(-c2ccc(C)c(NC(=O)c3cnc4ccc(C(N)=S)cn34)c2)no1 [F241]
54 | 240 | COC(=O)NCc1nc(-c2ccc(C)c(NC(=O)c3cnc4cc(CCC(C)=O)ccn34)c2)no1 [F177]
55 | 341 | Cc1nc(-c2ccc(C)c(NC(=O)c3cnc4ccc(-c5sc(C(=O)O)nc5C)cn34)c2)no1 [F247]
56 | 1030 | COC(=O)NCc1nc(-c2ccc(C)c(NC(=O)c3cnc4ccc(CCC(=O)OC(C)(C)C)cn34)c2)no1 [F216]
57 | 272 | Cc1ccc(-c2noc(CCC(C)(C)O)n2)cc1NC(=O)c1cnc2cc(N3CCOC3=O)ccn12 [F191]
58 | > 10000 | COC(=O)NCc1nc(-c2ccc(C)c(NC(=O)c3cnc4cc(CCC(=O)O)ccn34)c2)no1 [F232]
59 | 166 | Cc1ccc2ncc(C(=O)Nc3cc(-c4noc(NCC(C)(C)O)n4)ccc3C)n2c1 [F193]
60 | 166 | COC(=O)NCc1nc(-c2ccc(C)c(NC(=O)c3cnc4ccc(F)cn34)c2)no1 [F167, methyl (3-(3-(6-fluoroimidazo[1,2-a]pyridine-3-carboxamido)-4-methylphenyl)-1,2,4-oxadiazol-5-yl)methylcarbamate]
61 | 431 | CCN(CC)C(=O)Cc1nc(-c2ccc(C)c(NC(=O)c3cnc4ccccn34)c2)no1 [F210]
62 | 1460 | Cc1ccc(-c2noc(CNC(=O)CC(C)(C)O)n2)cc1NC(=O)c1cnc2ccccn12 [F223]
63 | 886 | COCCOCc1nc(-c2ccc(C)c(NC(=O)c3cnc4ccccn34)c2C)no1 [F215]
64 | 226 | Cc1nc(-c2ccc(C)c(NC(=O)c3cnc4ccc(-c5csc(N6CCOCC6)n5)cn34)c2)no1 [F176]
